The values that follow come from US12590130B2, “Bipartite molecules and uses thereof in treating diseases associated with abnormal protein aggregates” (ACADEMIA SINICA, priority 2014, dated 2026).

Data set [1] deals with 109QmHtt. As to the kind of experiment: Western blot of RIPA-soluble and -insoluble fractions of Neuro2a lysates. Format: cell-based. As to conditions: all groups. As for the experimental part: (§1) FIG. 4. Testing the ability of therapeutic peptides to decrease mHtt aggregation in Neuro2a cells overexpressing mHtt. Panel A: Filter trap assays and corresponding quantitation of cells (panel B) treated as indicated at 8 hours (T1), 24 hours (T2), or both (T1+2) after transfection with the 109QmHtt construct. […] Panel C: Western blots and quantitation (panel D) of RIPA-soluble (sol) and -insoluble (ins) fractions of Neuro2a cells overexpressing 25QHtt or 109QmHtt and treated as indicated. […] Panel E: Western blot of the 109QmHtt in cells treated as indicated. Note that MG132 blocked the effect of 8R10Q peptide with respect to decreasing insoluble 109QmHtt. Panel F: Quantitation of ratio of 109QmHtt in cells treated MG132 (+) over DMSO (−) in relationship to peptides. Statistical analysis conducted with one way ANOVA, *<0.05, **<0.01, ***<0.001, ns: not significant.
For further characterization, Neuro2a lysates were separated into the RIPA-soluble (sol) and insoluble (ins) fractions ([…]). 8R10Q peptide decreased the level of mHtt in both the soluble and insoluble fractions as compared with water, 8R, or the scrambled (s8R10Q) control (FIG. 4, panel D). […]
(In western blotting, separated proteins are transferred to a membrane and probed.)

The test system of data set [2] is Mouse N2a neuroblastoma cells.
Method: Cell viability measurement by MTT assays. […] Each bar was generated by a triplicate experiment; the study was repeated 3 times. The statistics were performed with one way ANOVA corrected with Fisher's LSD test. ***: p<0.001; ****p<0.0001; ns, not significant.
Cell viability assay. The viability of mouse N2a cells incubated with the indicated peptide(s) was measured using the MTT assay.
Mouse N2a neuroblastoma cells (ATCC) were cultured in Dulbecco's modified Eagle's medium (DMEM) (HyClone, USA) supplemented with 10% fetal bovine serum (FBS; HyClone, USA) in 5% CO2 at 37° C. For the cell viability assay, the cells were harvested, suspended at a density of 350,000 cells/mL in DMEM, and 100 μL of each sample was plated in each well of a 96-well CellBIND polystyrene microplate (Corning, USA). […] Cell viability was determined using the MTT (3-[4,5-dimethylthiazol-2-yl]-2,5-diphenyltetrazolium bromide) toxicity assay. […] Ten microliters of 5 mg/mL of MTT in PBS was added to each well, and then, after incubation for 4 h, the medium was removed and the MTT crystals were dissolved in 100 μL of 90% isopropanol, 0.5% SDS, and 40 mM HCl, and their absorption at 570 nm was measured. Cell viability was calculated by dividing the absorbance of the wells containing peptide samples by that of the wells without any added peptide. […]
Data set [3] concerns 109QmHtt aggregates. As to the kind of experiment: TIRF microscopy of mHtt aggregates in Neuro2a cells. Format: cell-based. As to conditions: Neuro2a cells expressing 109QmHtt. Here is the method: FIG. 3. Diagrams showing the co-localization of tested bipartite peptides with the 109QmHtt aggregates. Panel A: Structure of TAMRA-labeled 8R10Q used in this study. Panel B: Epifluorescence micrographs of Neuro2a cells expressing 109QmHtt treated with TAMRA-8R10Q (8R10Q) at various time points. Note the co-localization of 8R10Q and 109QmHttGFP aggregates (GFP) from 8-24 hours (arrows). Scale bar: 10 μm. Panel C: TIRF micrographs of the Neuro2a expressing 109QmHtt treated with water or peptides as indicated at various time points. Note the decrease in aggregate size in 8R10Q and 8R15Q-treated cells. Panel D: Quantitation of the size of individual aggregates in Neuro2a at 8 hours (left) and 24 hours (right) after peptide treatment. […] Panel E: Quantitation of the number of aggregates in 20 Neuro2a cells at 12 hours (left) and 24 hours (right) after peptide treatment. Both the 8R10Q and 8R15Q increased the number of aggregates. Statistics performed with one way ANOVA. **p<0.01; ***p<0.001.
To probe into the details of the effect of peptide on the mHtt aggregates, the parameters of the mHtt aggregates were visualized and measured using the Total Internal Reflection Fluorescence (TIRF) microscopy. […] The number of aggregates in 20 cells was also calculated. 8R10Q and 8R15Q increased the number of the aggregates by 4-5 fold (FIG. 3, panel E).

Data set [4] can be described thus: Solubility of therapeutic peptides. Type of data set: physicochemical. Here is the method: (§2) In this study, the rational design was tested for HD. Several bipartite therapeutic peptides containing 8 consecutive arginines (8R) attached to a stretch of consecutive glutamines (polyQ) were synthesized and their biological activity of decreasing the aggregation propensity of the mHtt protein was investigated. The length of the polyQ of these bipartite peptides was 5 (8R5Q), 10 (8R10Q), 15 (8R15Q) or 20 (8R20Q) (Table 2).

In data set [5] the test system is Neuro2a cells expressing 109QmHtt. As to the kind of experiment: Retinoic acid-induced neurite outgrowth. Format: cell-based, mouse. As to conditions: 109QmHtt cells; vs water or scrambled control. Here is the method: FIG. 5. Therapeutic effect of 8R10Q and 8R15Q in 109QmHtt-expressing cells. Panel A: Cell viability assay by MTT in Neuro2a cells expressing 25QHtt (left) or 109QmHtt (right) treated with H2O2 at 50 μM and the indicated peptide. Panel B: Cell growth curve of Neuro2a cells expressing 25QHtt or 109QmHtt treated with indicated peptide. The cells in right subpanel were further treated with H2O2 at 12.5 μM 16 hours after transfection. 109QmHtt cells growth was slower than that of the 25QHtt cells. 8R10Q treatment rescued the slow growth of Neuro2a cells by 109QmHtt with or without H2O2. Panel C: Micrographs of the phase contrast and fluorescent images of retinoic acid-differentiated Neu2a cells expressing GFP-25QHtt or GFP-109QmHtt (GFP) treated with the indicated peptide. Note the neurites of the differentiated cells. Panel D: Quantitation of the percentage of differentiated cells with neurites. Fewer 109QmHtt-expressing cells had neurites vs. 25QHtt-expressing cells. […] The experiments were conducted in triplicate and repeated twice. Statistical analysis was performed with one way ANOVA, *p<0.05; **p<0.01; ***p<0.001, ns: not significant.
Retinoic acid (RA) induced the differentiation of Neuro2a cells with neurite outgrowth. 109QmHtt decreased the number of cells bearing RA-induced neurites relative to 25QHtt (FIG. 5, panels C and D).

For data set [6], the system named is 109QmHtt. As to the kind of experiment: Filter trap assay of aggregated 109QmHtt in Neuro2a cells. Format: cell-based. As for the experimental part:
as §1
Whether the peptides could modulate the aggregation propensity of mHtt was next investigated.

Data set [7] is described as follows: Stability of therapeutic peptides determined by HPLC. Format: physicochemical. As to conditions: day 0 to day 28. As for the experimental part:
FIG. 2. Stability of the therapeutic peptides determined by HPLC. A: diagrams showing the retention time of the tested peptides from day 0 to day 28. B: charts showing the amount of the tested peptides at day 0 and day 28.
as §2

Square brackets hold non-standard residues; d marks the D form. Ends that are not written are not given here. Peptide text beside a SMILES is read from it. * marks the point of attachment. Cbz = O=C(OCc1ccccc1)*

Turning to `CC(C)C[C@@H](C=O)NC(=O)[C@H](CC(C)C)NC(=O)[C@H](CC(C)C)NC(=O)OCc1ccccc1` [MG132, reference compound] (Cbz-Leu-Leu-Leu-aldehyde), the “level of mHtt after MG132 treatment” value in data set [1] is “increased”.

As to `CC[C@H](C)[C@H](NC(=O)[C@H](C)NC(=O)CNC(=O)[C@H](CCCCN)NC(=O)[C@H](CC(N)=O)NC(=O)[C@H](CO)NC(=O)CNC(=O)[C@@H](CCCNC(=N)N)NC(=O)[C@@H](CCCNC(=N)N)NC(=O)[C@@H](CCCNC(=N)N)NC(=O)[C@@H](CCCNC(=N)N)NC(=O)[C@@H](CCCNC(=N)N)NC(=O)[C@@H](CCCNC(=N)N)NC(=O)[C@@H](CCCNC(=N)N)NC(=O)[C@H](N)CCCNC(=N)N)C(=O)N[C@H](C(=O)NCC(=O)N[C@@H](CC(C)C)C(=O)N[C@@H](CCSC)C(N)=O)[C@@H](C)CC` [^DR8-Aβ(25-35)] (H-[dR][dR][dR][dR][dR][dR][dR][dR]GSNKGAIIGLM-NH2; N-terminus assumed), in data set [2], the “viability of Neuro2a cells treated with peptide alone” value was “no detectable toxicity”.

With “H-RQQRRQQDQRQWQRQRQQRR-NH2 [s8R10Q, reference compound]”, in data set [3], the “average size of the aggregates” value is listed as 1.7 μm^2. Moreover, the “Solubility (DMEM/10% FBS)” value in data set [4] is “Soluble”.

Take “H-RRRRRRRRWD-NH2 [Peptide 8R, NH2-(R)8-W-D-CONH2, reference compound]”: the RA-induced neurite outgrowth result in data set [5] is recorded as “rescued the cells from this toxicity to some extent”. The “average size of the aggregates” value in data set [3] is 3.3 μm^2. Further, the “Solubility (DMEM/10% FBS)” value in data set [4] was “Soluble”.

Regarding “H-RRRRRRRRWDQQQQQ-NH2 [Peptide 8R5Q, NH2-(R)8-W-D-(Q)5-CONH2]”, in data set [4], the “Solubility (DMEM/10% FBS)” value is “Soluble” and the “solubility in water or culture medium” value was “highly soluble”.

“H-RRRRRRRRWDQQQQQQQQQQQQQQQ-NH2 [Peptide 8R15Q, NH2-(R)8-W-D-(Q)15-CONH2]”: the “aggregated 109QmHtt by filter trap assay” value in data set [6] (20 μM peptide added at 8 hours (T1) or 8 plus 24 hours (T1+T2) after transfection, vs water or 8R) was “significantly reduced”. For the same molecule, in data set [6] (peptide added at 24 hours alone), the “aggregated 109QmHtt by filter trap assay” value is listed as “no obvious effects”. The “average size of the aggregates” value in data set [3] is on record as 0.2 μm^2. In data set [7], the “change in retention time and amount during HPLC analysis” value was “time-dependent decrease in the retention time and amount”. Besides, in data set [4], the “Solubility (DMEM/10% FBS)” value is reported as “aggregated” and the “solubility in water or culture medium” value is given as “partially soluble”.

As for “H-RRRRRRRRWDQQQQQQQQQQQQQQQQQQQQ-NH2 [Peptide 8R20Q, NH2-(R)8-W-D-(Q)20-CONH2]”, the “change in retention time and amount during HPLC analysis” value in data set [7] is “time-dependent decrease in the retention time and amount”. Besides, in data set [4], the “Solubility (DMEM/10% FBS)” value is reported as “aggregated” and the “solubility in water or culture medium” value was “insoluble”.

Consider RRRRRRRRGSNKGAIIGLM-NH2 [R8-Aβ(25-35)], for which the “viability of Neuro2a cells treated with peptide alone” value in data set [2] is “no detectable toxicity”.

Take “TAMRA-NH-(R)8-W-D-CONH2 [TAMRA-8RWD, reference compound]”: the “Solubility (DMEM/10% FBS)” value in data set [4] is on record as “Soluble”.

For the molecule “TAMRA-NH-RQQRRQQDQRQWQRQRQQRR-CONH2 ({TAMRA}-RQQRRQQDQRQWQRQRQQRR-NH2) [TAMRA-s8R10Q, reference compound]”, the “Solubility (DMEM/10% FBS)” value in data set [4] is reported as “Soluble”.
